Results reported in patent US20090306083A1, “Use of Trifluoromethyl Substituted Benzamides in teh Treatment of Neurological Disorders” (Novartis AG, priority 2006, published 2009).

molecular target: T1, EphA4 receptor (Mus musculus, UniProt Q03137); test: Proof of mechanism: EphA4 phosphorylation in vivo in mouse brain (EphA4 immunoprecipitation, phospho-tyrosine Western blot); design: species or system NMRI mice; conditions: i.v. dose 10 mg/kg; sacrificed 25 minutes or 1 hour after dosing; brain homogenate
T1 construct: The brains were removed and one half of each brain was weighed and homogenized; from tissue; host or cells: mouse brain (NMRI mice), homogenate
T1 sequence (Q03137 20-986): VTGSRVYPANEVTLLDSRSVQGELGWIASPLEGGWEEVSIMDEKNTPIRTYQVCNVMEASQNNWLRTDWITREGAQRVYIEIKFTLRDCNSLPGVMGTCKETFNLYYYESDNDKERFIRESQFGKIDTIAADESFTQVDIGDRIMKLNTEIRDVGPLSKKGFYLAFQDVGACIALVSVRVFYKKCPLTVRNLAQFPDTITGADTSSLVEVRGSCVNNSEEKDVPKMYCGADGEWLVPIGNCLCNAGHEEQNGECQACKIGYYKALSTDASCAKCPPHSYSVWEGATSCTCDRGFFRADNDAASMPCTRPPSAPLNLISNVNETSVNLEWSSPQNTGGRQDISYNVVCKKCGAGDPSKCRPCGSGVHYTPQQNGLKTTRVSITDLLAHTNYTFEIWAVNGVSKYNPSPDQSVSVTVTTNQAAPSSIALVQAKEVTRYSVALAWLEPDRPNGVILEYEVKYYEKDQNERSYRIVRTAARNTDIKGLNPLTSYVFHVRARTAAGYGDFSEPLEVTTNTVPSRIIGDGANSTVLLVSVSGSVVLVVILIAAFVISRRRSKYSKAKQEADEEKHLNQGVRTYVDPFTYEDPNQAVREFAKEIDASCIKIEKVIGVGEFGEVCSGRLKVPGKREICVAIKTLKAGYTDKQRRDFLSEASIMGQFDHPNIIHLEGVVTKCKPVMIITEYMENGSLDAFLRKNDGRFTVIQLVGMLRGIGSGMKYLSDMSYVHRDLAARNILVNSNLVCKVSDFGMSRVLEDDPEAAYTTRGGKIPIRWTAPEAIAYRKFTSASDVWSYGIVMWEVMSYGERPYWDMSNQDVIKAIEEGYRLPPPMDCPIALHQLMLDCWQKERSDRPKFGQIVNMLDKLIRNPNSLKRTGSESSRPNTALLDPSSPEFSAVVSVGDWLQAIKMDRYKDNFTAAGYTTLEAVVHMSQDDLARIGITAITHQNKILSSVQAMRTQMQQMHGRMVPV
Method: Male NMRI mice were injected with relevant compounds at a dose of 10 mg/kg body weight and were sacrificed either 25 minutes or 1 hour following the dosing (0.25 h or 1 h shown in FIG. 4). The brains were removed and one half of each brain was weighed and homogenized in appropriate volume of lysis buffer for 30 seconds (10 seconds pulse and 10 seconds off—3 times). The homogenate was spun at 12,000 g for 30 minutes. Protein amounts were estimated for supernatants (using BCA) and equal amounts of protein for each condition were subjected to EphA4 immunoprecipitation followed by a phospho-tyrosine western blot. Four control animals were used and three experimental animals per time point were used for each of the compounds tested.

SMILES	EphA4 phosphorylation in vivo in mouse brain
Cc1ccc(C(=O)Nc2cccc(C(F)(F)F)c2)cc1-c1ccc2ccncc2c1 [Compound 3, 3-Isoquinolin-7-yl-4-methyl-N-(3-trifluoromethyl-phenyl)-benzamide]	block EphA4 phosphorylation in vivo in mouse brain

test system: astrocytes; test: Astrocyte scratch wound assay (in vitro assay for astrogliosis); type: cell-based, C57BL/6 mice; conditions: cytokines (TGF-α, LIF, and IFN) plus 10 nM compound; serum free=1
Method: Assay Astrocytes are prepared from the cerebral cortex of neonatal C57BL/6 mice(P1-P2). Cells are maintained in Dulbecco's modified Eagle's medium with 10% FBS. 4-7 weeks old astrocytes are plated to confluence in 2 well chamber slides coated with poly-D-lysine for the scratch wound assay and serum starved. 48 hrs after serum starvation, the monolayer of astrocytes is scratched with sterile 200 μl tips and washed twice with PBS to get rid of cell debris. Conditioned medium (±cytokines) is added to the wounded astrocytes. The microscopic images of the scratch is captured at a magnification of 10× right after scratch and considered as time point 0.24 hrs, 48 hrs or 72 hrs after scratch, the same region of scratch is imaged and fixed with methanol containing 1 μg/ml of DAPI to monitor migration and proliferation of astrocytes.

SMILES	astrocyte migration induced by cytokines (relative area of cell migration compared to control)
Cc1ccc(C(=O)Nc2cccc(C(F)(F)F)c2)cc1-c1ccc2ccncc2c1 [Compound 3, 3-Isoquinolin-7-yl-4-methyl-N-(3-trifluoromethyl-phenyl)-benzamide]	block astrocyte migration induced by cytokines

test system: not given; test: not given; conditions: not given

melting point [°C]	SMILES
94 to 96	Cc1ccc(NC(=O)c2cccc(C(F)(F)F)c2)cc1-c1ccc2ncsc2c1 [Compound 5, N-(3-Benzothiazol-6-yl-4-methyl-phenyl)-3-trifluoromethyl-benzamide]
90 to 93	Cc1ccc(NC(=O)c2cccc(C(F)(F)F)c2)cc1-c1ccc2scnc2c1 [Compound 9, N-(3-Benzothiazol-5-yl-4-methyl-phenyl)-3-trifluoromethyl-benzamide]
200 to 202	Cc1ccc(C(=O)Nc2cccc(C(F)(F)F)c2)cc1-c1ccc2scnc2c1 [Compound 10, 3-Benzothiazol-5-yl-4-methyl-N-(3-trifluoromethylphenyl)benzamide]

More lines, now with the values behind:

SMILES	melting point [°C]
Cc1ccc(NC(=O)c2cccc(C(F)(F)F)c2)cc1-c1ccc2ccncc2c1 [Compound 1, N-(3-Isoquinolin-7-yl-4-methyl-phenyl)-3-trifluoromethyl-benzamide]	148 to 152
Cc1ccc(C(=O)Nc2cccc(C(F)(F)F)c2)cc1-c1ccc2ncsc2c1 [Compound 6, 3-Benzothiazol-6-yl-4-methyl-N-(3-trifluoromethyl-phenyl)-benzamide]	102 to 104
Cc1ccc(NC(=O)c2cccc(C(F)(F)F)c2)cc1-c1ccc2cnncc2c1 [Compound 7, N-(4-Methyl-3-phthalazin-6-yl-phenyl)-3-trifluoromethyl-benzamide]	205 to 206
Cc1ccc(C(=O)Nc2cccc(C(F)(F)F)c2)cc1-c1ccc2cnncc2c1 [Compound 8, 4-Methyl-3-phthalazin-6-yl-N-(3-trifluoromethyl-phenyl)-benzamide]	270 to 272
